Assay results published in patent publication US20060014193A1, “Nucleoside phosphoramidates and nucleoside phosphoramidases” (priority 2004, published 2006).
Read-outs that look alike come from different tables or passages of the source.

Columns and labels:
hHINT1 [1] = biological target: T1, hHINT1 (Homo sapiens, UniProt P49773); details: literature (J. Biol. Chem. 2004, 279, 18711; 2002, 277, 10852); cited from earlier work
hHINT1 [2] = biological target: T1, hHINT1; assay: Phosphoramidase fluorescence assay; assay type: biochemical; details: for Kcat / Km: Table 5
Procedure: (§1) The fluorescence of tryptophan (ex, 280 nm, em 360 nm) can be quenched when covalently attached to a nucleoside monophosphate, and nucleoside phosphoramidates of D- and L-tryptophan and tryptamine are excellent fluorescent substrates for hHINT1. Typically, after measurement of initial substrate fluorescence, hHINT1 was added to the reaction solution (HEPES buffer, pH 7.2, 25° C.) and the change in fluorescence over 2 min was determined by converting the slope into μM of substrate hydrolyzed per μg of enzyme per min with a standard curve. […] Based on the generation of chimeric polypeptides between the hHINTI and the hinT of E. coli, the preference for D enantiomers by the human HINT1 polypeptide is likely conferred by the C-terminus amino acids (e.g., the C-terminus 5, 6, 5 7, 8, 9, 10, or 11 amino acids) of the hHINT1 enzyme. […] In addition, both D-tryptophan phosphoramidates of cytosine and uridine were substrates. Initial rates were determined 10 during the first 10-20% of the reaction for variable substrate concentrations. The Michaelis-Menten constants, kcat and Km, for selected nucleoside phosphosphoramidates have been determined. (Table 4). As observed in the initial screening assay, for phosphoramidates containing L-tryptophan, hHINT1 has a 7-fold greater preference for AMP phosphoramidates of L-tryptophan than GMP.

E. coli hinT [3] = biological target: T2, E. coli hinT (Escherichia coli, UniProt P0ACE7); assay: Phosphoramidase fluorescence assay; assay type: biochemical; details: Table 5
T2 sequence (P0ACE7 1-119): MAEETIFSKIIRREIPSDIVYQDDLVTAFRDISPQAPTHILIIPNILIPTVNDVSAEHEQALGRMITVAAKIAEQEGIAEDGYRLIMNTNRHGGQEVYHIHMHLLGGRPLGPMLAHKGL
Description: as §1, with “hHINT1.” for “hHINT1. Typically, after measurement of initial substrate fluorescence, hHINT1 was added to the reaction solution (HEPES buffer, pH 7.2, 25° C.) and the change in fluorescence over 2 min was determined by converting the slope into μM of substrate hydrolyzed per μg of enzyme per min with a standard curve.”, “(Table 4).” left out
In addition, the Michaelis-Menten constants, kcat and Km, for selected nucleoside phosphosphoramidates were determined for both human Hint1 and E. coli hinT (Table 5).

hHINT1 [4] = biological target: T1, hHINT1; assay: Catalytic activity (velocity) of cloned, purified phosphoramidase with AMPNH2; assay type: biochemical
Description: The enzyme responsible for hydrolysis of AZT amino acid phosphoramidates was cloned and characterized. After construction of a cDNA library from peripheral blood mononuclear cells (PBMCs) in T7Select10-3b phage, the phage display technique was employed to isolate the enzyme by affinity chromatography. After three rounds of phage selection and ampilification with an affinity column constructed from the L-tryptophan carbamate, DNA from ten selected plaques was amplified by PCR and sequenced. […] Hint1 is a member of the HIT protein superfamily, which consists of a recently identified adenosine 5′-monophosphoramide hydrolases from rabbit and yeast.
Velocity of the enzymes was determined at pH 7.2 at room temperature in the presence of 10 mM AMPNH2.

Human Hint1-DHFR = biological target: T3, Human Hint1-DHFR (UniProt P0ABQ4+P49773); assay: 31P NMR phosphoramidase assay of purified protein; assay type: biochemical; details: 10 mM substrate, pH 7.2, 22° C.
T3 construct: made in house; host or cells: E. coli (following the procedure for the hinT plasmid)
Procedure: (§2) Phosphoramidase activity in cell lysates was measured by the ^1H-decoupling mode of phosphorus-31 NMR spectroscopy (Varian VAC-300 spectrometer), which can clearly distinguish the substrate, AMP-NH2, and the product, adenosine 5′-monophosphate (AMP). NMR spectrometry is suitable for quantitation by integration of the area under the peak, which is proportional to the amount of nuclei present. The relative ratio of peak areas can be used to calculate the amount of turnover corrected based on a standard curve.
(§3) Cell lysates from E. coli Tuner(DE3)pLacI cells (Novagen) were obtained by treatment with lysozyme (1 mg/ml) and the DNA was precipitated by protamine sulfate followed by centrifugation to remove cell debris. The supernatant was dialyzed extensively against Buffer A (20 mM Tris (pH 7.0); 1 mM EDTA; 1 mM DTT, 0.01 mM PMSF) to remove cellular phosphates and nucleotides. Phosphate free cell lysates (0.75 mg total protein) were incubated with 5 mM AMP-NH2 in 0.5 ml reaction buffer (0.5 mM MgCl2, 20 mM HEPES (pH 7.2)) at 37° C. for intervals of 15 min, 30 min, and 12 h. The reactions were terminated by snap freezing in a dry ice/acetone slush bath and lyophilized for 5 h. The samples were then dissolved in NMR buffer (600 μL, 50 mM EDTA, 20 mM HEPES (pH 7.2), and 1 mM TMP (trimethylphosphate, internal standard)) and the insoluble portion was spun down by centrifugation at 12,500×g for 5 min. A ^31P NMR spectrum was then collected for the supernatant. For the low pH control experiment, 10 mM AMP-NH2 in reaction buffer (500 μL, pH 2.0) was incubated at 37° C. for 12 h and the 31p signal was detected under the same conditions.
(§4) Five recombinant purified proteins were tested with three commercial available compounds (Sigma): AMP-NH2, adenosine 5′-monophosphomorpholidate (AMP-Mor), and guanosine 5′-monophosphomorpholidate (GMP-Mor) (FIG. 1). The compounds (10 mM) were incubated with proteins (2.5-10 μg) in the reaction buffer (500 μL, 0.5 mM MgCl2, 20 mM HEPES (pH 7.2)) at 22° C. for intervals of 36 and 66 min. The reactions were quenched by adding 5 M NaOH (20 μL), followed by snap freezing in a dry ice/acetone slush bath, and lyophilized. The sample preparation for ^31P NMR measurement was as described above for the cell-lysate experiment except that the pH was adjusted by the addition of 12 μL 6 M HCl before NMR spectra were collected.

E. coli hinT-DHFR = biological target: T4, E. coli hinT-DHFR (Escherichia coli, UniProt P0ABQ4+P0ACE7); assay: 31P NMR phosphoramidase assay of purified protein; assay type: biochemical; details: 10 mM substrate, pH 7.2, 22° C.
T4 construct: made in house; host or cells: E. coli Tuner(DE3)pLacI
Procedure: as §2, §3, §4

E. coli hinT [5] = biological target: T2, E. coli hinT; assay: 31P NMR phosphoramidase assay of purified protein; assay type: biochemical; details: for Specific activity: 10 mM substrate, pH 7.2, 22° C.
Procedure: as §2, §3, §4

hHINT1 [6] = biological target: T1, hHINT1; assay: 31P NMR phosphoramidase assay of purified protein; assay type: biochemical; details: for Specific activity: 10 mM substrate, pH 7.2, 22° C.
Procedure: as §2, §3, §4

Rabbit HINT1 = biological target: T5, Rabbit HINT1 (Oryctolagus cuniculus, UniProt P80912); assay: 31P NMR phosphoramidase assay of purified protein; assay type: biochemical; details: for Specific activity: 10 mM substrate, pH 7.2, 22° C.
T5 construct: made in house; host or cells: E. coli hinT deletion mutant
Procedure: as §2, §3, §4

[7] = FIG. 5 substrate preference screen

Row | Compound | Kcat (hHINT1 [2]) | Km (hHINT1 [2]) | Kcat (E. coli hinT [3]) | Km (E. coli hinT [3]) | further results
1 | Nc1ncnc2c1ncn2[C@@H]1O[C@H](COP(=O)(O)NCCCC[C@H](N)C(=O)O)[C@@H](O)[C@H]1O [AMP-lysine] | – | – | – | – | Kcat (hHINT1 [1]): 0.234 ± 0.011 s⁻¹; Km (hHINT1 [1]): 0.472 ± 0.057 µM
2 | Nc1ncnc2c1ncn2[C@@H]1O[C@H](COP(=O)(O)NCCc2c[nH]c3ccccc23)[C@@H](O)[C@@H]1O [Ara-AMP-Tryptamine] | 0.85 ± 0.1 s⁻¹ | 0.79 ± 0.11 µM | 0.95 ± 0.17 s⁻¹ | 34.6 ± 5.64 µM | –
3 | Nc1nc2c(ncn2[C@@H]2O[C@H](COP(=O)(O)NCCc3c[nH]c4ccccc34)[C@@H](O)[C@H]2O)c(=O)[nH]1 [GMP-Tryptamine] | 2.09 ± 0.16 s⁻¹ | 0.243 ± 0.03 µM | 3.45 ± 0.3 s⁻¹ | 5.34 ± 0.69 µM | –
4 | O=c1[nH]cnc2c1ncn2[C@@H]1O[C@H](COP(=O)(O)NCCc2c[nH]c3ccccc23)[C@@H](O)[C@H]1O [IMP-Tryptamine] | 2.53 ± 0.09 s⁻¹ | 0.71 ± 0.03 µM | 3.89 ± 0.18 s⁻¹ | 13.7 ± 0.67 µM | –
5 | AZT tryptophan phosphoramidate | – | – | – | – | Hydrolysis by over-expressed, purified human Hint1 (hHINT1 [4]): to a lesser extent
6 | Cc1cn([C@H]2C[C@H](O)[C@@H](COP(=O)(O)NCCc3c[nH]c4ccccc34)O2)c(=O)[nH]c1=O [TMP-Tryptamine] | 0.044 ± 0.01 s⁻¹ | 26.1 ± 2.78 µM | 0.014 ± 0.001 s⁻¹ | 35.9 ± 2.27 µM | –
7 | Nc1nc2c(ncn2C2OC(COP(=O)(O)NC(Cc3c[nH]c4ccccc34)C(=O)O)C(O)C2O)c(=O)[nH]1 [GMP D-tryptophan phosphoramidate, guanosine monophosphate (GMP) D-tryptophan phosphoramidate] | – | – | – | – | Activity relative to 7-benzyl guanosine monophosphate (7-Bn GMP) (hHINT1 [2]; [7]): approximately 7 fold; Activity relative to GMP L-tryptophan (hHINT1 [2]; [7]): nearly identical
8 | COC(=O)[C@@H](Cc1c[nH]c2ccccc12)NP(=O)(O)OC[C@H]1O[C@@H](n2cnc3c(=O)[nH]c(N)nc32)[C@H](O)[C@@H]1O [GMP-D-TrpCOOMe] | 0.29 ± 0.02 s⁻¹ | 3.27 ± 0.58 µM | 1.75 ± 0.05 s⁻¹ | 21.3 ± 1.21 µM | –
9 | Nc1nc2c(ncn2[C@@H]2O[C@H](COP(=O)(O)N3CCOCC3)[C@@H](O)[C@H]2O)c(=O)[nH]1 [GMP-Mor, guanosine 5′-monophosphomorpholidate] | – | – | – | – | Specific activity (Human Hint1-DHFR): 87.2 ± 11.8 nmol nmol^−1 min^−1; Specific activity (E. coli hinT-DHFR): 675 ± 17 nmol nmol^−1 min^−1; Preference for GMP-Mor over AMP-Mor (E. coli hinT [5]): 2 fold; Specific activity (E. coli hinT [5]): 669 ± 1 nmol nmol^−1 min^−1; Preference for GMP-Mor over AMP-Mor (hHINT1 [6]): 2 fold; Specific activity (hHINT1 [6]): 78.7 ± 1.3 nmol nmol^−1 min^−1; Preference for GMP-Mor over AMP-Mor (Rabbit HINT1): 2 fold; Specific activity (Rabbit HINT1): 48.6 ± 0.4 nmol nmol^−1 min^−1
10 | O=c1ccn([C@@H]2O[C@H](COP(=O)(O)NCCc3c[nH]c4ccccc34)[C@@H](O)[C@H]2O)c(=O)[nH]1 [UMP-Tryptamine] | 1.85 ± 0.29 s⁻¹ | 1.42 ± 0.25 µM | 1.63 ± 0.22 s⁻¹ | 25.1 ± 3.56 µM | –
11 | Nc1ncnc2c1ncn2[C@@H]1O[C@H](COP(=O)(O)NCCc2c[nH]c3ccccc23)[C@@H](O)[C@H]1O [AMP-Tryptamine] | 2.05 ± 0.27 s⁻¹ | 0.25 ± 0.05 µM | 4.07 ± 0.11 s⁻¹ | 5.03 ± 0.21 µM | –
12 | Nc1ncnc2c1ncn2[C@@H]1O[C@H](COP(=O)(O)N2CCOCC2)[C@@H](O)[C@H]1O [AMP-Mor, adenosine 5′-monophosphomorpholidate] | – | – | – | – | Specific activity (Human Hint1-DHFR): 43.4 ± 4.0 nmol nmol^−1 min^−1; Specific activity (E. coli hinT-DHFR): 411 ± 4 nmol nmol^−1 min^−1; Specific activity (E. coli hinT [5]): 360 ± 1 nmol nmol^−1 min^−1; Specific activity (hHINT1 [6]): 45.0 ± 0 nmol nmol^−1 min^−1; Specific activity (Rabbit HINT1): 26.6 ± 0.6 nmol nmol^−1 min^−1
